The test system of one assay is Class I PI3-kinases. The following applies: wortmannin, background section; read-out: IC50 against each of the various Class I PI3-kinases; cited from earlier work.
The next assay deals with T1, PI3Kα (Homo sapiens, UniProt P42336).
T1 construct: His
In words: PI3K Alpha Leadseeker SPA Assay. The following applies: His-p110/p85 PI3K alpha, SPA imaging beads, P33-ATP; read-out: IC50 against PI3Kα. It counts as biochemical. As for the experimental part:
PI3K Alpha Leadseeker SPA Assay
Compounds of the present invention were tested according to the following assays and found as inhibitors of PI3 kinases, particularly PI3Kα. The activities (IC50) range from 1 to 500 μM against PI3Kα.
SPA imaging beads are microspheres containing scintillant which emit light in the red region of the visible spectrum. As a result, these beads are ideally suited to use with a CCD imager such as the Viewlux. The Leadseeker beads used in this system are polystyrene beads that have been coupled with polyethyleneimine. When added to the assay mixture, the beads absorb both the substrate (PIP2) and product (PIP3). Adsorbed P^33-PIP3 will cause an increase in signal, measured as ADUs (analog to digital units). This protocol details the use of the PEI-PS Leadseeker beads for assays using His-p110/p85 PI3K alpha.
Solid compounds are typically plated with 0.1 μl of 100% DMSO in all wells (except column 6 and 18) of a 384-well, flat bottom, low volume plate (Greiner 784075). […]
The assay buffer contains MOPS (pH 6.5), CHAPS, and DTT. […] The signal is determined using a Viewlux detector and is then imported into curve fitting software (Activity Base) for construction of concentration response curves. […]

The structures appear in SMILES notation.

T1 sequence (P42336 whole entry): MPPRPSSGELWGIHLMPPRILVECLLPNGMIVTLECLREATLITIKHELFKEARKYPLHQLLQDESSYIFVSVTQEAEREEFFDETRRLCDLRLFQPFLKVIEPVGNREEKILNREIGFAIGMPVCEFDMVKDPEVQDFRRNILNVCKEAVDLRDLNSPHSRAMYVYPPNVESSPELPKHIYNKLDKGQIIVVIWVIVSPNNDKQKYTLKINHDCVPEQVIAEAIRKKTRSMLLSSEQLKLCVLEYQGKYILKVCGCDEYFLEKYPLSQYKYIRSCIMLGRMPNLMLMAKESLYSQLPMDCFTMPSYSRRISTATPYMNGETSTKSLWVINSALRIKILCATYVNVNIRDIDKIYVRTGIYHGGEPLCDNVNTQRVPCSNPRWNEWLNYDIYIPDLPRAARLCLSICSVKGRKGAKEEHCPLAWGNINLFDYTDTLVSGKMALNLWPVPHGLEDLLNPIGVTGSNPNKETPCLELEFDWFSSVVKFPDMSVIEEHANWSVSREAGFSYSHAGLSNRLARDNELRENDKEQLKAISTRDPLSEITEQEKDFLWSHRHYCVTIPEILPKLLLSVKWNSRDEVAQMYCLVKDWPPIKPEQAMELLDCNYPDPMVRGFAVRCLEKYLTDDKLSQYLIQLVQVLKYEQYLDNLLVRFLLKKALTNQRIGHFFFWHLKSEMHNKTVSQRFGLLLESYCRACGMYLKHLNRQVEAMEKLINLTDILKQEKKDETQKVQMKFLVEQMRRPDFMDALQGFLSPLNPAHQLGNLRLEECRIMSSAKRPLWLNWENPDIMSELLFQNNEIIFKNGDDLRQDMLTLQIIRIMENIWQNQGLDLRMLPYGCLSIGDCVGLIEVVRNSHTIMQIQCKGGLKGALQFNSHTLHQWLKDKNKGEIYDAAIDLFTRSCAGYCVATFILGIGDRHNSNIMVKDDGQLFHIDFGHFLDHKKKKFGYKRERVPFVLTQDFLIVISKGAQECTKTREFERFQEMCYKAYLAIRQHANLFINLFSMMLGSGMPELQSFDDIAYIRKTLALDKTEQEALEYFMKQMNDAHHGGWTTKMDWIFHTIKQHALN
T1 sequence (P27986 whole entry partner): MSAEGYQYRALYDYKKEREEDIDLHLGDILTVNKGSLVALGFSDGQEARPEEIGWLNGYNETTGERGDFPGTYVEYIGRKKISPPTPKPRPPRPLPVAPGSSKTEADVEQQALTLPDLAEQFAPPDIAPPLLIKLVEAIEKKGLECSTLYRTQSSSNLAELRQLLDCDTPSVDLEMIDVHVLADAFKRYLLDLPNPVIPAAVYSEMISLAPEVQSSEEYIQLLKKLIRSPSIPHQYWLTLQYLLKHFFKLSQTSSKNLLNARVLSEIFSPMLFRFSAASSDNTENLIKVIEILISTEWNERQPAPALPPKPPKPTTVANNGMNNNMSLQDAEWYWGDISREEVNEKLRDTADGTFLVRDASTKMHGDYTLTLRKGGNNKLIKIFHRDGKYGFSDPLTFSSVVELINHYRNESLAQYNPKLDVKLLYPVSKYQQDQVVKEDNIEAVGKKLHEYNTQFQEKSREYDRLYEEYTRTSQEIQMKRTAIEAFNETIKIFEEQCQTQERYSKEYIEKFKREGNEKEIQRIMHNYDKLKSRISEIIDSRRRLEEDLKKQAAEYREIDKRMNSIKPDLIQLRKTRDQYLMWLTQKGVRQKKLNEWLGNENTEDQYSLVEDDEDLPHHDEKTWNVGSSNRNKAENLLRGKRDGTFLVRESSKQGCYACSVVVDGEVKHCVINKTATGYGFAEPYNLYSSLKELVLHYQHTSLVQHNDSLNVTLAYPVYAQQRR

Take `COC[C@H]1OC(=O)c2coc3c2[C@@]1(C)C1=C(C3=O)[C@@H]2CCC(=O)[C@@]2(C)C[C@H]1OC(C)=O` [wortmannin]: in the assay on Class I PI3-kinases, the IC50 was 1 to 10 nM.
With `O=C1NC(=O)/C(=C/c2ccc3nccc(-c4ccncc4)c3c2)S1` [Example 1, (5Z)-5-{[4-(4-pyridinyl)-6-quinolinyl]methylidene}-1,3-thiazolidine-2,4-dione], the IC50 on PI3Kα was 1000 nM.

(Values after patent US20080255115A1, “THIAZOLIDINEDIONE DERIVATIVES AS PI3 KINASE INHIBITORS” (priority 2007, published 2008).)
